IC50 data for 3 compounds are collected here from US7235560B2, “Pyrimidine derivative as selective COX-2 inhibitors” (priority 2002, dated 2007).

The structures appear in SMILES notation.

One assay concerns the target T1, microsomal h-COX2 (Homo sapiens, UniProt P35354).
T1 construct: made in house; host or cells: baculovirus infected SF9 cells (microsomal preparation)
T1 sequence (P35354 18-604): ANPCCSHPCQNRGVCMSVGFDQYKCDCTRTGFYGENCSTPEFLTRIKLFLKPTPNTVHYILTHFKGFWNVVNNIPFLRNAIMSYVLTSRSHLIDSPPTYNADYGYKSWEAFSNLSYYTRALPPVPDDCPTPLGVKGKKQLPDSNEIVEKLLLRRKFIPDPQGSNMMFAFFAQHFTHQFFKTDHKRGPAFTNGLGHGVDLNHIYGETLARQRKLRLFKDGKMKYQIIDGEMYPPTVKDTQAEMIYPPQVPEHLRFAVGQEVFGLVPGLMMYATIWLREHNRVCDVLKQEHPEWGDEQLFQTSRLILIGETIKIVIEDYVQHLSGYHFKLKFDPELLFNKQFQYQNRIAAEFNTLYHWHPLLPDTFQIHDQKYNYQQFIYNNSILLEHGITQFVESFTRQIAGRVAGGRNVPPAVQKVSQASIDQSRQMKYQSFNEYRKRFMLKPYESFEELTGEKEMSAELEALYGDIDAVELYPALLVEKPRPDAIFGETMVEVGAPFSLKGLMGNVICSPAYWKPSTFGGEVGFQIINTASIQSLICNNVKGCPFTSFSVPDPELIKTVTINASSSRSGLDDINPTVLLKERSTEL
The assay can be described thus: Microsomal assay, inhibition of h-COX2 (PGE2 by EIA). The class given is biochemical. To be noted: microsomal preparation from baculovirus infected SF9 cells; 1 hour preincubation; 0.1 μM arachidonic acid; read-out: COX-2: IC50. The procedure:
Inhibitory activity against microsomal h-COX2 was assessed against a microsomal preparation from baculovirus infected SF9 cells. An aliquot of microsomal preparation was thawed slowly on ice and a 1/40,000 dilution prepared from it into the assay buffer (sterile water, degassed with argon containing 100 mM HEPES (pH 7.4), 10 mM EDTA (pH7.4), 1 mM phenol, 1 mM reduced glutathione, 20 mg/ml gelatin and 0.001 mM Hematin). Once diluted the enzyme solution was then sonicated for 5 seconds (Branson sonicator, setting 4, 1 cm tip) to ensure a homogeneous suspension. 155 μl enzyme solution was then added to each well of a 96-well microtitre plate containing either 5 μl test compound (40× required test concentration) or 5 μl DMSO for controls. Plates were then mixed and incubated at room temperature for 1 hour. Following the incubation period, 40 μl of 0.5 μM arachidonic acid was added to each well to give a final concentration of 0.1 μM. Plates were then mixed and incubated for exactly 10 minutes (room temperature) prior to addition of 25 μl 1M HCl (hydrochloric acid) to each well to stop the reaction. 25 μl of 1M NaOH (sodium hydroxide) was then added to each well to neutralise the solution prior to determination of PGE2 levels by enzyme immunoassay (EIA).
The following IC50 values for inhibition of COX-2 and COX-1 were obtained from the microsomal assay for compounds of the invention: […]

For a further assay, the target named is COX-1 (Homo sapiens, UniProt P23219). The assay can be described thus: Microsomal assay, inhibition of COX-1. The assay is classed as biochemical.
COX-1, sequence (P23219 24-599): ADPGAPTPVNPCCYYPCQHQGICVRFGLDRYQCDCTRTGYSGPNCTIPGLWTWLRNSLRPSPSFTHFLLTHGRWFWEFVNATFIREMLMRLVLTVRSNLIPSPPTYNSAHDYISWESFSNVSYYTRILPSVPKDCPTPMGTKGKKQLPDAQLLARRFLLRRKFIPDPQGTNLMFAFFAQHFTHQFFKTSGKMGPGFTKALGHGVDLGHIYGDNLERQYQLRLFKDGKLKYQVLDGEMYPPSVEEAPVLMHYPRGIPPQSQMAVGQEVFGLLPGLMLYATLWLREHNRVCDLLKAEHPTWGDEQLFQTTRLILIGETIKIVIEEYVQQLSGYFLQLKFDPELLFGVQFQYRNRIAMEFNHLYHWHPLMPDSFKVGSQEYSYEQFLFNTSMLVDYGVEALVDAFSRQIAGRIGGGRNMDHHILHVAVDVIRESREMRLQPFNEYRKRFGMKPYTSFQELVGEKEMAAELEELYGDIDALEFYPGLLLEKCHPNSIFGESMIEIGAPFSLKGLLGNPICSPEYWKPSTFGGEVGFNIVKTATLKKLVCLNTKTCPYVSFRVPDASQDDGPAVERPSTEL

Usually IC50 stands for the concentration needed to halve the response being measured. With `CS(=O)(=O)c1ccc(-c2cc(C(F)(F)F)nc(NC3CCCCC3)n2)nc1` [Example 5, Cyclohexyl-[4-(5-methanesulfonyl-pyridin-2-yl)-6-trifluoromethyl-pyrimidin-2-yl]-amine], the concentration for half-maximal inhibition (IC50) on microsomal h-COX2 was 19 nM; on COX-1, greater than 100000 nM.
As to `Cc1cccc(CN(C)c2nc(-c3ccc(S(C)(=O)=O)cn3)cc(C(F)(F)F)n2)n1` [Example 3, [4-(5-Methanesulfonyl-pyridin-2-yl)-6-trifluoromethyl-pyrimidin-2-yl]-methyl-(6-methyl-pyridin-2-ylmethyl)-amine], the IC50 at microsomal h-COX2 stood at 5 nM; at COX-1, 67100 nM.
For the compound `Cc1cc(-c2ccc(S(C)(=O)=O)cn2)nc(NCc2ccccc2)n1` [Example 1], the IC50 amounted to 51 nM at microsomal h-COX2 and 23100 nM on COX-1.
